Data published in patent publication US6048854A, “2,3-diaminopropionic acid derivative” (Sumitomo Pharmaceuticals Company, Limited, priority 1993, dated 2000).

Test system: platelet aggregation
Assay: Platelet aggregation inhibitory activity (ADP-induced, human platelet rich plasma)
Type: cell-based
Settings: Homo sapiens
Protocol: The blood was collected from the elbow vein of a normal volunteer with mixing thereof with 1/10 volume of 3.8% sodium citrate, and the blood was centrifuged at 1000 rpm (150 g) for 10 minutes to give the supernatant as platelet rich plasma (PRP). To PRP (200 μl) was added a test compound solution (2 μl), and the mixture was incubated with stirring at 1000 rpm at 37° C. for two minutes, and thereto was added a platelet aggregator, adenosine diphosphate (ADP, 22 μl) at a final concentration of 3 μg/ml. The platelet aggregation activity was determined by nephelometric analysis using a Hematracer (manufactured by Niko Bioscience, Ltd.). The test results of platelet aggregation inhibitory activity are expressed by IC50, which is a concentration of the test compound being required to inhibit the platelet aggregation reaction by 50%.
The compounds of Examples 18 to 70 were tested in the same manner as in Example 17.
The compounds of Examples 72 to 116 were tested in the same manner as in Example 17.

[1] = Table 2, same manner as Example 17
[2] = Table 3, same manner as Example 17

## O=C(CCC1CCNCC1)NCCC(=O)NC[C@H](NS(=O)(=O)c1ccc2ccccc2c1)C(=O)O [Example 43, (2S)-2-(2-naphthalene)sulfonylamino-3-(3-(3-(4-piperidyl)propanoylamino)propanoylamino)propanoic Acid]
[1]
  IC50: 0.26 µM

## CCS(=O)(=O)N[C@@H](CNC(=O)CCNC(=O)CCC1CCNCC1)C(=O)O [Example 44, (2S)-2-ethanesulfonylamino-3-(3-(3-(4-piperidyl)propanoylamino)propanoylamino)propanoic Acid]
[1]
  IC50: 0.263 µM

## CCCS(=O)(=O)N[C@@H](CNC(=O)CCNC(=O)CCC1CCNCC1)C(=O)O [Example 45, (2S)-3-(3-(3-(4-piperidyl)propanoylamino)propanoylamino)-2-propanesulfonylaminopropanoic Acid]
[1]
  IC50: 0.121 µM

## COc1cc(C)c(S(=O)(=O)N[C@@H](CNC(=O)CCNC(=O)CCC2CCNCC2)C(=O)O)c(C)c1C [Example 46, (2S)-2-(4-methoxy-2,3,6-trimethyl)benzenesulfonylamino-3-(3-(3-(4-piperidyl)propanoylamino)propanoylamino)propanoic Acid]
[1]
  IC50: 0.032 µM

## O=C(CCC1CCNCC1)NCCC(=O)NC[C@H](NS(=O)(=O)c1ccc(OC(F)(F)F)cc1)C(=O)O [Example 47, (2S)-3-(3-(3-(4-piperidyl)propanoylamino)propanoylamino)-2-(4-trifluoromethoxy)benzenesulfonylaminopropanoic Acid]
[1]
  IC50: 0.238 µM

## CCCCOc1ccc(S(=O)(=O)N[C@@H](CNC(=O)CCNC(=O)CCC2CCNCC2)C(=O)O)cc1 [Example 48, (2S)-2-(4-butoxy)benzenesulfonylamino-3-(3-(3-(4-piperidyl)propanoylamino)propanoylamino)propanoic Acid]
[1]
  IC50: 0.067 µM

## CCCc1ccc(S(=O)(=O)N[C@@H](CNC(=O)CCNC(=O)CCC2CCNCC2)C(=O)O)cc1 [Example 49, (2S)-3-(3-(3-(4-piperidyl)propanoylamino)propanoylamino)-2-(4-propyl)benzenesulfonylaminopropanoic Acid]
[1]
  IC50: 0.17 µM

## CC(C)c1ccc(S(=O)(=O)N[C@@H](CNC(=O)CCNC(=O)CCC2CCNCC2)C(=O)O)cc1 [Example 50, (2S)-2-(4-isopropyl)benzenesulfonylamino-3-(3-(3-(4-piperidyl)propanoylamino)propanoylamino)propanoic Acid]
[1]
  IC50: 0.203 µM

## O=C(CCCC1CCNCC1)NCCC(=O)NC[C@H](NS(=O)(=O)c1ccccc1)C(=O)O [Example 53, (2S)-2-benzenesulfonylamino-3-(3-(4-(4-piperidyl)butanoylamino)propanoylamino)propanoic Acid]
[1]
  IC50: 0.111 µM

## O=C(CCCC(=O)NC[C@H](NS(=O)(=O)c1ccccc1)C(=O)O)NCC1CCNCC1 [Example 54, (2S)-2-benzenesulfonylamino-3-(4-(4-piperidylmethylcarbamoyl)butanoylamino)propanoic Acid]
[1]
  IC50: 0.079 µM

## O=C(CCNC(=O)COC1CCNCC1)NC[C@H](NS(=O)(=O)c1ccccc1)C(=O)O [Example 55, (2S)-2-benzenesulfonylamino-3-(3-(2-(4-piperidyloxy)ethanoylamino)propanoylamino)propanoic Acid]
[1]
  IC50: 0.3 µM

## CCCCS(=O)(=O)N[C@@H](CNC(=O)CCCOc1ccc(C(=N)N)cc1)C(=O)O [Example 56, (2S)-3-(4-(4-amidinophenoxy)butanoylamino)-2-butanesulfonylaminopropanoic Acid]
[1]
  IC50: 0.09 µM

## CCCCS(=O)(=O)N[C@@H](CNC(=O)CCCCOc1ccc(C(=N)N)cc1)C(=O)O [Example 65, (2S)-3-(5-(4-amidinophenoxy)pentanoylamino)-2-butanesulfonylaminopropanoicAcid]
[1]
  IC50: 0.079 µM

## COc1ccc(S(=O)(=O)N[C@@H](CNC(=O)CCCCc2ccc(C(=N)N)cc2)C(=O)O)cc1 [Example 66, (2S)-3-(5-(4-amidinophenyl)pentanoylamino)-2-(4-methoxy)benzenesulfonylaminopropanoic Acid]
[1]
  IC50: 0.016 µM

## COc1ccc(S(=O)(=O)N[C@@H](CNC(=O)C2CCCN(C(=O)CCC3CCNCC3)C2)C(=O)O)cc1 (stereo partly drawn) [Example 70, (2S)-2-(4-methoxy)benzenesulfonylamino-3-(1-(3-(4-piperidyl)propanoyl)-3-piperidylcarbonylamino)propanoic Acid]
[1]
  IC50: 0.057 µM

## COc1cccc2c(S(=O)(=O)N[C@@H](CNC(=O)CCNC(=O)CCC3CCNCC3)C(=O)O)cccc12 [Example 72, (2S)-2-(5-methoxy-1-naphthalene)sulfonylamino-3-(3-(3-(4-piperidyl)propanoylamino)propanoylamino)propanoic Acid]
[2]
  IC50: 0.052 µM

## N=C(N)c1ccc(C(=O)NCCC(=O)NC[C@@H](NS(=O)(=O)c2ccccc2)C(=O)O)cc1 [Example 73, (2R)-3-(3-(4-amidinobenzoylamino)propanoylamino)-2-benzenesulfonylaminopropanoic Acid]
[2]
  IC50: 0.162 µM

## N=C(N)c1ccc(C(=O)NCCC(=O)NC[C@H](NS(=O)(=O)c2ccccc2N)C(=O)O)cc1 [Example 81, (2S)-3-(3-(4-amidinobenzoylamino)propanoylamino)-2-(2-amino)benzenesulfonylaminopropanoic Acid]
[2]
  IC50: 0.028 µM

## N=C(N)c1ccc(OCCCC(=O)NC[C@H](NS(=O)(=O)c2ccccc2N)C(=O)O)cc1 [Example 84, (2S)-3-(4-(4-amidinophenoxy)butanoylamino)-2-(2-amino)benzenesulfonylaminopropanoic Acid]
[2]
  IC50: 0.022 µM

## N=C(N)c1ccc(CCCCC(=O)NC[C@H](NS(=O)(=O)c2cccc3ccccc23)C(=O)O)cc1 [Example 88, (2S)-3-(5-(4-amidinophenyl)pentanoylamino)-2-(1-naphthalene)sulfonylaminopropanoic Acid]
[2]
  IC50: 0.044 µM

## CCc1ccc(S(=O)(=O)N[C@@H](CNC(=O)CCCCc2ccc(C(=N)N)cc2)C(=O)O)cc1 [Example 89, (2S)-3-(5-(4-amidinophenyl)pentanoylamino)-2-(4-ethyl)benzenesulfonylaminopropanoic Acid]
[2]
  IC50: 0.026 µM

## N=C(N)c1ccc(CCCCC(=O)NC[C@H](NS(=O)(=O)c2ccccc2C(F)(F)F)C(=O)O)cc1 [Example 90, (2S)-3-(5-(4-amidinophenyl)pentanoylamino)-2-(2-trifluoromethyl)benzenesulfonylaminopropanoic Acid]
[2]
  IC50: 0.015 µM

## N=C(N)c1ccc(C(=O)CCCCC(=O)NC[C@H](NS(=O)(=O)c2ccccc2)C(=O)O)cc1 [Example 94, (2S)-3-(5-(4-amidinobenzoyl)pentanoylamino)-2-benzenesulfonylaminopropanoic Acid]
[2]
  IC50: 0.031 µM

## CN(CCC(=O)NC[C@H](NS(=O)(=O)c1ccccc1)C(=O)O)C(=O)c1ccc(C(=N)N)cc1 [Example 96, (2S)-3-(3-(4-amidinobenzoylmethylamino)propanoylamino)-2-benzensulfonylaminopropanoic Acid]
[2]
  IC50: 0.057 µM

## CCc1ccc(S(=O)(=O)N[C@@H](CNC(=O)CCN(C)C(=O)c2ccc(C(=N)N)cc2)C(=O)O)cc1 [Example 97, (2S)-3-(3-(4-amidinobenzoylmethylamino)propanoylamino)-2-(4-ethyl)benzenesulfonylaminopropanoic Acid]
[2]
  IC50: 0.049 µM

## N=C(NN)c1ccc(C(=O)NCCC(=O)NC[C@H](NS(=O)(=O)c2ccccc2)C(=O)O)cc1 [Example 101, (2S)-2-benzenesulfonylamino-3-(3-(4-hydrazinoiminobenzoylamino)propanoylamino)propanoic Acid]
[2]
  IC50: 0.103 µM

## CC(=O)NNC(=N)c1ccc(C(=O)NCCC(=O)NC[C@H](NS(=O)(=O)c2ccccc2)C(=O)O)cc1 [Example 102, (2S)-2-benzenesulfonylamino-3-(3-(4-acetylhydrazinoiminobenzoylamino)propanoylamino)propanoic Acid]
[2]
  IC50: 0.035 µM

## CCCCNC(=N)c1ccc(C(=O)NCCC(=O)NC[C@H](NS(=O)(=O)c2ccccc2)C(=O)O)cc1 [Example 103, (2S)-2-benzenesulfonylamino-3-(3-(4-(N-n-butylamidino)benzoylamino)propanoylamino)propanoic Acid]
[2]
  IC50: 0.025 µM

## CCCCCCNC(=N)c1ccc(C(=O)NCCC(=O)NC[C@H](NS(=O)(=O)c2ccccc2)C(=O)O)cc1 [Example 104, (2S)-2-benzenesulfonylamino-3-(3-(4-(N-n-hexylamidino)benzoylamino)propanoylamino)propanoic Acid]
[2]
  IC50: 0.028 µM

## N=C(NC1CCCCC1)c1ccc(C(=O)NCCC(=O)NC[C@H](NS(=O)(=O)c2ccccc2)C(=O)O)cc1 [Example 105, (2S)-2-benzenesulfonylamino-3-(3-(4-(N-cyclohexylamidino)benzoylamino)propanoylamino)propanoic Acid]
[2]
  IC50: 0.022 µM

## N=C(NCc1ccccc1)c1ccc(C(=O)NCCC(=O)NC[C@H](NS(=O)(=O)c2ccccc2)C(=O)O)cc1 [Example 106, (2S)-2-benzenesulfonylamino-3-(3-(4-(N-benzylamidino)benzoylamino)propanoylamino)propanoic Acid]
[2]
  IC50: 0.116 µM

## CNC(=N)c1ccc(OCCCC(=O)NC[C@H](NS(=O)(=O)c2ccccc2)C(=O)O)cc1 [Example 107, (2S)-2-benzenesulfonylamino-3-(4-(4-(N-methylamidino)phenoxy)butanoylamino)propanoic Acid]
[2]
  IC50: 0.029 µM

## CCNC(=N)c1ccc(OCCCC(=O)NC[C@H](NS(=O)(=O)c2ccccc2)C(=O)O)cc1 [Example 108, (2S)-2-benzenesulfonylamino-3-(4-(4-(N-ethylamidino)phenoxy)butanoylamino)propanoic Acid]
[2]
  IC50: 0.051 µM
